The conditions of the series: 298.15 K.

As a reminder, the solubility (mole fraction) is solubility expressed as the solute's share of all molecules.

`O=c1c(O)c(-c2ccc(O)c(O)c2)oc2cc(O)cc(O)c12`: the solubility (mole fraction) stood at 0.00223 (in ethyl acetate), 0.00144 (in methanol), 0.00184 (in n-butyl acetate) and 0.0019 (in n-propyl acetate).
In the case of `Oc1ccc(/C=C/c2cc(O)cc(O)c2)cc1`, the solubility (mole fraction) runs as follows: (in ethyl acetate) 0.00895; (in methanol) 0.0189; (in n-butyl acetate) 0.00463; (in n-propyl acetate) 0.00596.
Regarding `OC[C@H]1O[C@@H](Oc2cc(O)cc(/C=C/c3ccc(O)cc3)c2)[C@H](O)[C@@H](O)[C@@H]1O`, the solubility (mole fraction) reads like this: (in ethyl acetate) 6.73e-05; (in methanol) 0.0086; (in n-butyl acetate) 1.96e-05; (in n-propyl acetate) 3.37e-05.
With `O=c1c(O)c(-c2ccc(O)cc2)oc2cc(O)cc(O)c12`, the solubility (mole fraction) worked out at 0.00452 (in ethyl acetate), 0.00324 (in methanol), 0.0024 (in n-butyl acetate) and 0.00275 (in n-propyl acetate).

(Values after BigSolDB 2.1.)
